This note sets out measurements from publication PMC11642016 (International Journal of Molecular Sciences, 2024).

Like-named read-outs stand apart in the source and are kept apart here.

One data set relates to Fadu cells. Kind of data set: CellTiter-Glo luminescent cell viability assay, Fadu. The settings on record: 72 h, mean ± SD, n = 2; for Cell Viability (% of Control) 2.8 µM / Cell Viability (% of Control) 8.3 µM / Cell Viability (% of Control) 25 µM: Fadu; for viability at 2.8 µM / viability at 8.3 µM / viability at 25 µM: Homo sapiens, FaDu; for viability at 2.8 µM: read-out: Cell Viability (% of Control) 2.8 µM, Fadu; for viability at 8.3 µM: read-out: Cell Viability (% of Control) 8.3 µM, Fadu; for viability at 25 µM: read-out: Cell Viability (% of Control) 25 µM, Fadu.

In the next data set the test system is PANC-1 cells. As to the kind of experiment: CellTiter-Glo luminescent cell viability assay, PANC-1. Conditions: 72 h, mean ± SD, n = 2; for Cell Viability (% of Control) 2.8 µM / Cell Viability (% of Control) 8.3 µM / Cell Viability (% of Control) 25 µM: PANC-1; for viability at 2.8 µM / viability at 8.3 µM / viability at 25 µM: Homo sapiens, PANC-1, 72 h; for viability at 2.8 µM: read-out: Cell Viability (% of Control) 2.8 µM, PANC-1; for viability at 8.3 µM: read-out: Cell Viability (% of Control) 8.3 µM, PANC-1; for viability at 25 µM: read-out: Cell Viability (% of Control) 25 µM, PANC-1. In general terms: In ATP-based viability assays light output follows the ATP content of the culture.

Procedure for PANC-1 cells: Primary fibroblast cultures were prepared from human skin biopsies and maintained in DMEM supplemented with 10% FBS, 1% penicillin-streptomycin, and 1% MEM Non-Essential Amino Acids Solution (Thermo Fisher Scientific). […] All cell lines were cultured in a humidified atmosphere at 37 °C and 5% CO2, passaged twice a week, and the experiments were performed on cells between passage 5 and 15. The cell lines were routinely screened for the absence of mycoplasma infection (DAPI staining).
The effects of the synthesized compounds on cell viability were measured using the CellTiter-Glo® luminescent cell viability assay (Promega, Madison, WI, USA), according to the manufacturer’s instructions. Briefly, cells were seeded onto a flat-bottomed, white 96-well plate (BRANDplates, cat. no.: 781965)), with the following densities: PANC-1: 750 cells/well, Fadu: 2000 cells/well, primary fibroblasts: 2000 cells/well, HEK293T WT: 1000 cells/well, HEK293T CLPP^−/−: 2500 cells/well. After seeding, cells were incubated for a further 48 h before treatment. Cells were treated with the compounds for 72 h. Three concentrations (25.0 µM; 8.3 µM; 2.8 µM) were applied during the initial cell viability screening, while for the determination of dose–response curves, 1.5-fold serially diluted compound concentrations were applied (range: 26 µM–0.7 µM). After treatment, the luminescence signal was recorded using a microplate reader (BioTek Synergy 2 Multi-Mode Reader, BioTek, Winooski, VT, USA).
Data analysis was performed using GraphPad Prism 9.5.0 software (GraphPad Software, San Diego, CA, USA). […] The dose–response curves were generated by four-parameter nonlinear regression, and the IC50 values were determined as the means ± SEM of the best-fit values of 3 independent measurements. The R^2 values were consistently above 0.93, indicating a strong fit of the model to the experimental data (Supplementary S.89). […] Dunnett’s post hoc test was applied to adjust for multiple comparisons, minimizing the likelihood of false positive results. Assumptions for ANOVA, including normality (assessed via QQ plots) and homogeneity of variance (tested using the Brown–Forsythe test), were verified. The following significance levels were applied: * p < 0.05, ** p < 0.01, *** p < 0.001, **** p < 0.0001. […] The tumor selectivity of the compounds was quantitatively characterized by the selectivity index (SI). This parameter was calculated as the ratio of the average best-fit IC50 value for primary fibroblasts and the best-fit IC50 value for the corresponding tumor cells (PANC-1 or Fadu).

For `NCC#Cc1cccc(CN2C(=O)C3=C(CCN(Cc4ccc(NC(=O)[c-]5cccc5)cc4)C3)N3CCN=C23)c1.[Fe+2].c1cc[cH-]c1` [23a], in the data set on Fadu cells (second-set screening), the “Cell Viability (% of Control) 2.8 µM” value is on record as 109 ± 10 % of Control, the “Cell Viability (% of Control) 8.3 µM” value was 107 ± 7 % of Control and the “Cell Viability (% of Control) 25 µM” value is 61 ± 20 % of Control. Moreover, in the data set with PANC-1 cells (second-set screening), the “Cell Viability (% of Control) 2.8 µM” value is 98 ± 7 % of Control, the “Cell Viability (% of Control) 8.3 µM” value is on record as 104 ± 10 % of Control and the “Cell Viability (% of Control) 25 µM” value is listed as 52 ± 55 % of Control.
Take `O=C1C2=C(CCN(Cc3cccc(-n4cc(-c5ccccc5)nn4)c3)C2)N2CCN=C2N1Cc1ccc(C#CCO)cc1` [3d]: in the data set on Fadu cells (first-set screening), the viability at 2.8 µM is 87 ± 1%, the viability at 8.3 µM turned out to be 29 ± 2% and the viability at 25 µM was found to be 23 ± 3%. In the data set with PANC-1 cells (first-set screening), the viability at 2.8 µM was determined as 85 ± 1%, the viability at 8.3 µM is 55 ± 6% and the viability at 25 µM stood at 46 ± 7%.
Take `CN1CCN(CC#Cc2cccc(CN3C(=O)C4=C(CCN(Cc5ccc(-n6cc(-c7ccccc7)nn6)cc5)C4)N4CCN=C34)c2)CC1` [41b]: in the data set on Fadu cells (second-set screening), the viability at 2.8 µM is 106 ± 1%, the viability at 8.3 µM was determined as 30 ± 28% and the viability at 25 µM turned out to be 3 ± 1%. Besides, in the data set with PANC-1 cells (second-set screening), the viability at 2.8 µM was 110 ± 6%, the viability at 8.3 µM came out at 0% and the viability at 25 µM is 0%.
`Nc1cccc(-c2cn(-c3ccc(CN4CCC5=C(C4)C(=O)N(Cc4ccc(C#CCO)cc4)C4=NCCN45)cc3)nn2)c1` [1d]: in the data set on Fadu cells (first-set screening), the viability at 2.8 µM came out at 99 ± 9%, the viability at 8.3 µM was found to be 96 ± 7% and the viability at 25 µM turned out to be 84 ± 4%. Also, in the data set with PANC-1 cells (first-set screening), the viability at 2.8 µM was 99 ± 3%, the viability at 8.3 µM amounted to 101 ± 3% and the viability at 25 µM worked out at 100 ± 5%.
Take `CN(C)CC#Cc1cccc(CN2C(=O)C3=C(CCN(Cc4ccc(-n5cc(-c6ccccc6)nn5)cc4)C3)N3CCN=C23)c1` [39b]: in the data set with Fadu cells (second-set screening), the viability at 2.8 µM came to 96 ± 4%, the viability at 8.3 µM worked out at 15 ± 8% and the viability at 25 µM is 1 ± 1%. Moreover, in the data set with PANC-1 cells (second-set screening), the viability at 2.8 µM worked out at 107 ± 3%, the viability at 8.3 µM worked out at 25 ± 20% and the viability at 25 µM was 2 ± 3%.
As for `CN(C)CC#Cc1cccc(CN2C(=O)C3=C(CCN(Cc4ccc(-n5cc(-[c-]6cccc6)nn5)cc4)C3)N3CCN=C23)c1.[Fe+2].c1cc[cH-]c1` [39a], in the data set with Fadu cells (second-set screening), the “Cell Viability (% of Control) 2.8 µM” value is reported as 99 ± 9 % of Control, the “Cell Viability (% of Control) 8.3 µM” value is listed as 45 ± 52 % of Control and the “Cell Viability (% of Control) 25 µM” value was 13 ± 15 % of Control. Besides, in the data set on PANC-1 cells (second-set screening), the “Cell Viability (% of Control) 2.8 µM” value was 112 ± 7 % of Control, the “Cell Viability (% of Control) 8.3 µM” value was 62 ± 72 % of Control and the “Cell Viability (% of Control) 25 µM” value is on record as 35 ± 41 % of Control.
In the case of `NCC#Cc1cccc(CN2C(=O)C3=C(CCN(Cc4ccc(NC(=O)c5ccccc5)cc4)C3)N3CCN=C23)c1` [23b], in the data set with Fadu cells (second-set screening), the viability at 2.8 µM was found to be 117 ± 11%, the viability at 8.3 µM is 108 ± 7% and the viability at 25 µM is 77 ± 6%. Besides, in the data set on PANC-1 cells (second-set screening), the viability at 2.8 µM was determined as 113 ± 15%, the viability at 8.3 µM worked out at 106 ± 5% and the viability at 25 µM amounted to 47 ± 39%.
As for `NCC#Cc1ccc(CN2C(=O)C3=C(CCN(Cc4cccc(-n5cc(-[c-]6cccc6)nn5)c4)C3)N3CCN=C23)cc1.[Fe+2].c1cc[cH-]c1` [3a], in the data set on Fadu cells (first-set screening), the “Cell Viability (% of Control) 2.8 µM” value was 104 ± 5 % of Control, the “Cell Viability (% of Control) 8.3 µM” value is reported as 100 ± 6 % of Control and the “Cell Viability (% of Control) 25 µM” value is 0 ± 0 % of Control. Moreover, in the data set with PANC-1 cells (first-set screening), the “Cell Viability (% of Control) 2.8 µM” value is recorded as 101 ± 7 % of Control, the “Cell Viability (% of Control) 8.3 µM” value is given as 88 ± 0 % of Control and the “Cell Viability (% of Control) 25 µM” value is given as 0 ± 0 % of Control.
As for `NCC#Cc1cccc(CN2C(=O)C3=C(CCN(Cc4ccc(-n5cc(-c6cccc(F)c6)nn5)cc4)C3)N3CCN=C23)c1` [36a], in the data set with Fadu cells (second-set screening), the viability at 2.8 µM worked out at 105 ± 20%, the viability at 8.3 µM worked out at 6 ± 5% and the viability at 25 µM turned out to be 0%. For the same compound, in the data set with PANC-1 cells (second-set screening), the viability at 2.8 µM is 116 ± 8%, the viability at 8.3 µM stood at 0% and the viability at 25 µM came to 0%.
On to `O=C1C2=C(CCN(Cc3ccc(-n4cc(-c5ccccc5)nn4)cc3)C2)N2CCN=C2N1Cc1ccc(F)cc1` [16f], for which, in the data set with Fadu cells (first-set screening), the viability at 2.8 µM worked out at 100 ± 1%, the viability at 8.3 µM is 94 ± 1% and the viability at 25 µM was 77 ± 4%. Further, in the data set on PANC-1 cells (first-set screening), the viability at 2.8 µM was determined as 81 ± 3%, the viability at 8.3 µM is 68 ± 4% and the viability at 25 µM was determined as 60 ± 1%.
`NCC#Cc1cccc(CN2C(=O)C3=C(CCN(Cc4ccc(-n5cc(-c6ccc(F)cc6)nn5)cc4)C3)N3CCN=C23)c1` [36b]: in the data set with Fadu cells (second-set screening), the viability at 2.8 µM worked out at 114 ± 7%, the viability at 8.3 µM amounted to 1 ± 1% and the viability at 25 µM stood at 0%. Besides, in the data set on PANC-1 cells (second-set screening), the viability at 2.8 µM came out at 116 ± 7%, the viability at 8.3 µM turned out to be 0% and the viability at 25 µM stood at 0%.
`O=C1C2=C(CCN(Cc3ccc(-n4cc(-[c-]5cccc5)nn4)cc3)C2)N2CCN=C2N1Cc1cccc(C#CCN2CCCCC2)c1.[Fe+2].c1cc[cH-]c1` [40a]: in the data set on Fadu cells (second-set screening), the “Cell Viability (% of Control) 2.8 µM” value is 105 ± 5 % of Control, the “Cell Viability (% of Control) 8.3 µM” value was 81 ± 21 % of Control and the “Cell Viability (% of Control) 25 µM” value is given as 45 ± 34 % of Control. For the same compound, in the data set with PANC-1 cells (second-set screening), the “Cell Viability (% of Control) 2.8 µM” value is on record as 119 ± 4 % of Control, the “Cell Viability (% of Control) 8.3 µM” value is listed as 72 ± 61 % of Control and the “Cell Viability (% of Control) 25 µM” value is reported as 61 ± 67 % of Control.
As for `NCc1cccc(CN2C(=O)C3=C(CCN(Cc4ccc(-n5cc(-c6ccccc6)nn5)cc4)C3)N3CCN=C23)c1` [37b], in the data set with Fadu cells (second-set screening), the viability at 2.8 µM is 108 ± 7%, the viability at 8.3 µM is 91 ± 12% and the viability at 25 µM worked out at 13 ± 6%. Further, in the data set with PANC-1 cells (second-set screening), the viability at 2.8 µM worked out at 110 ± 5%, the viability at 8.3 µM came to 113 ± 3% and the viability at 25 µM was 5 ± 6%.
Regarding `NCC#Cc1cccc(CN2C(=O)C3=C(CCN(Cc4ccc(C(=O)Nc5ccccc5)cc4)C3)N3CCN=C23)c1` [33b], in the data set on Fadu cells (second-set screening), the viability at 2.8 µM is 120 ± 9%, the viability at 8.3 µM worked out at 115 ± 6% and the viability at 25 µM is 80 ± 11%. For the same compound, in the data set on PANC-1 cells (second-set screening), the viability at 2.8 µM was determined as 102 ± 9%, the viability at 8.3 µM was found to be 109 ± 5% and the viability at 25 µM was 71 ± 32%.
Turning to `NCC#Cc1cccc(CN2C(=O)C3=C(CCN(Cc4ccc(C(=O)N[c-]5cccc5)cc4)C3)N3CCN=C23)c1.[Fe+2].c1cc[cH-]c1` [33a], in the data set with Fadu cells (second-set screening), the “Cell Viability (% of Control) 2.8 µM” value is recorded as 99 ± 2 % of Control, the “Cell Viability (% of Control) 8.3 µM” value is listed as 93 ± 2 % of Control and the “Cell Viability (% of Control) 25 µM” value was 9 ± 8 % of Control. For the same compound, in the data set on PANC-1 cells (second-set screening), the “Cell Viability (% of Control) 2.8 µM” value was 102 ± 9 % of Control, the “Cell Viability (% of Control) 8.3 µM” value was 107 ± 9 % of Control and the “Cell Viability (% of Control) 25 µM” value is reported as 4 ± 5 % of Control.
For the compound `O=C1C2=C(CCN(Cc3ccc(-n4cc(-[c-]5cccc5)nn4)cc3)C2)N2CCN=C2N1Cc1cccc(C#CCO)c1.[Fe+2].c1cc[cH-]c1` [2c], in the data set with Fadu cells (first-set screening), the “Cell Viability (% of Control) 2.8 µM” value is listed as 79 ± 2 % of Control, the “Cell Viability (% of Control) 8.3 µM” value is 76 ± 4 % of Control and the “Cell Viability (% of Control) 25 µM” value is on record as 65 ± 0 % of Control. In addition, in the data set with PANC-1 cells (first-set screening), the “Cell Viability (% of Control) 2.8 µM” value was 94 ± 2 % of Control, the “Cell Viability (% of Control) 8.3 µM” value is 95 ± 2 % of Control and the “Cell Viability (% of Control) 25 µM” value is recorded as 97 ± 2 % of Control.

The term viability denotes a read-out of living cells in per cent, often relative to untreated cells.
